From patent US11993588B2, “Crystalline forms of a MAGL inhibitor” (H. Lundbeck A/S, priority 2016, dated 2024)
Values after ≈ are worked out from the molar mass of the structure shown. Structures can show the parent of a compound that is named as a salt. Where two headings read alike, the source gives them in different places.

What was measured:
Format in all cases: physicochemical
[1] = Solvent solubility screen for Compound 1; conditions: thermodynamic from solid, crystalline Compound 1 (Form 1), read-out: Approximate Solubility
Description: Ca. 10 mg of crystalline Compound 1 was placed in 32 vials and 5 volume aliquots of the appropriate solvent systems were added to the appropriate vial. Between each addition, the mixture was checked for dissolution and if no dissolution was apparent, the mixture was heated to ca. 40° C. and checked again. This procedure was continued until dissolution was observed or until 100 volumes of solvent had been added. After the addition of 100 volumes, a further 100 volumes were added to samples which had not dissolved to give a total of 200 volumes. If 200 volumes were added without dissolution, the solubility was calculated to be below this point (<5 mg/mL).

[2] = Gravimetric vapor sorption (GVS); conditions: for hygroscopic nature / weight uptake: GVS; for Post-GVS analysis by XRPD (form change): after GVS sorption/desorption cycle
Description: Approximately 10 mg of sample was placed into a mesh vapour sorption balance pan and loaded into an IGASorp Moisture Sorption Analyser balance by Hiden Analytical. The sample was subjected to a ramping profile from 40-90% relative humidity (RH) at 10% increments, maintaining the sample at each step until a stable weight had been achieved (98% step completion). After completion of the sorption cycle, the sample was dried using the same procedure to 0% RH, and finally taken back to the starting point of 40% RH. The weight change during the sorption/desorption cycles were plotted, allowing for the hygroscopic nature of the sample to be determined.

7-day stability testing = assay: 7-day stability testing
Description: Form 2 of Compound 2 was scaled up in two solvents. Material underwent 7-day stability testing and/or aqueous solubility assessment. The 7-day stability testing was conducted as follows. Material was exposed to environments of 40° C./75% RH, ambient light and 80° C. for 7 days and the resulting solids analysed by XRPD to determine if any changes had occurred, and by HPLC to determine purity. The aqueous solubility assessment was conducted as follows. A slurry was created in deionised water (5.1 mg of Form 2 and 300 μL of water) and shaken for ca. 24 hours at ambient temperature (ca. 22° C.). The initial pH and final pH were measured. The resulting mixture was then isolated by centrifuge filtration, and the solution obtained analysed by HPLC to calculate the concentration of material dissolved. Remaining solid was analysed by XRPD to determine if any changes had occurred on slurrying.

[3] = Compound 6 polymorph screen; conditions: among the three Compound 6 polymorphs
Excerpt: In a Compound 6 polymorph screen, two additional Compound 6 crystalline forms were identified. Compound 6, Form 2, was isolated from a 95/5 acetone/water slurry and Compound 6, Form 3, was isolated from in a 80/20 dioxane/water mixture.

[4] = ambient light / ambient conditions for 7 days

Work on O=C(OC(C(F)(F)F)C(F)(F)F)N1CCN(Cc2ccc(C(F)(F)F)cc2N2CCCC2)CC1 [Compound 1, 1,1,1,3,3,3-hexafluoropropan-2-yl 4-(2-(pyrrolidin-1-yl)-4-(trifluoromethyl)benzyl)piperazine-1-carboxylate] yielded a solubility ([1]; aqueous with cosolvent or surfactant or cyclodextrin, 2-Propanol:water (50%)) of less than 5 mg/mL, a solubility ([1]; aqueous with cosolvent or surfactant or cyclodextrin, Acetone:water (50%), precipitated after ca. 30 minutes) greater than 202 mg/mL and a solubility ([1]; aqueous with cosolvent or surfactant or cyclodextrin, Methanol:water (50%)) of less than 5 mg/mL. It also gave a solubility ([1]; organic solvent or mixture, 1,4-Dioxane) greater than 206 mg/mL, a solubility ([1]; organic solvent or mixture, 1-Butanol) of 39 mg/mL (≈ 76.9 mM) and a solubility ([1]; organic solvent or mixture, 2-Ethoxyethanol) of 103 mg/mL (≈ 203 mM). The solubility ([1]; organic solvent or mixture, 2-Methyl tetrahydrofuran) was greater than 200 mg/mL, the solubility ([1]; organic solvent or mixture, 2-Propanol, precipitated after ca. 2 days) was 69 mg/mL (≈ 136 mM) and the solubility ([1]; organic solvent or mixture, Acetone) was greater than 202 mg/mL. It also gave a solubility ([1]; organic solvent or mixture, Acetonitrile) greater than 196 mg/mL, a solubility ([1]; organic solvent or mixture, Anisole) greater than 200 mg/mL and a solubility ([1]; organic solvent or mixture, Benzonitrile) greater than 214 mg/mL. It also gave a solubility ([1]; organic solvent or mixture, Chlorobenzene) of 69 mg/mL (≈ 136 mM), a solubility ([1]; organic solvent or mixture, Dichloromethane) greater than 198 mg/mL and a solubility ([1]; organic solvent or mixture, Diisopropyl Ether) greater than 208 mg/mL. For the same compound, the solubility ([1]; organic solvent or mixture, Dimethylacetamide) was greater than 204 mg/mL, the solubility ([1]; organic solvent or mixture, Dimethylformamide) was greater than 204 mg/mL and the solubility ([1]; organic solvent or mixture, Dimethylsulfoxide) was 50 mg/mL (≈ 98.5 mM). The solubility ([1]; organic solvent or mixture, Ethanol) was 67 mg/mL (≈ 132 mM), the solubility ([1]; organic solvent or mixture, Ethyl acetate) was greater than 198 mg/mL and the solubility ([1]; organic solvent or mixture, Heptane) was 49 mg/mL (≈ 96.6 mM). For the same compound, the solubility ([1]; organic solvent or mixture, Hexane) was 49 mg/mL (≈ 96.6 mM), the solubility ([1]; organic solvent or mixture, Isopropyl acetate) was greater than 198 mg/mL and the solubility ([1]; organic solvent or mixture, Methanol) was 72 mg/mL (≈ 142 mM). It also gave a solubility ([1]; organic solvent or mixture, Methyl isobutyl ketone) greater than 196 mg/mL, a solubility ([1]; organic solvent or mixture, Methylethyl ketone) greater than 202 mg/mL and a solubility ([1]; organic solvent or mixture, N-Methyl-2-pyrrolidone) greater than 198 mg/mL. The solubility ([1]; organic solvent or mixture, Tetrahydrofuran) was greater than 198 mg/mL, the solubility ([1]; organic solvent or mixture, Toluene) was greater than 202 mg/mL and the solubility ([1]; organic solvent or mixture, tert-Amyl alcohol) was 69 mg/mL (≈ 136 mM). It also gave a solubility ([1]; organic solvent or mixture, tert-Butylmethyl ether) greater than 196 mg/mL and a solubility ([1]; Water) of less than 5 mg/mL.
For Cl.Cl.O=C(OC(C(F)(F)F)C(F)(F)F)N1CCN(Cc2ccc(C(F)(F)F)cc2N2CCCC2)CC1 [Compound 3, 1,1,1,3,3,3-hexafluoropropan-2-yl 4-(2-(pyrrolidin-1-yl)-4-(trifluoromethyl)benzyl)piperazine-1-carboxylate bis-HCl salt], the hygroscopic nature [2] was “slightly hygroscopic”, the weight uptake ([2]; at 90% RH) was 1.4% and the “Post-GVS analysis by XRPD (form change)” value [2] was “remain unchanged”.
With CS(=O)(=O)O.O=C(OC(C(F)(F)F)C(F)(F)F)N1CCN(Cc2ccc(C(F)(F)F)cc2N2CCCC2)CC1 [Compound 5, 1,1,1,3,3,3-hexafluoropropan-2-yl 4-(2-(pyrrolidin-1-yl)-4-(trifluoromethyl)benzyl)piperazine-1-carboxylate mesylate salt] the “HPLC purity after stability testing” value (7-day stability testing; 40° C./75% RH for 7 days) was 99.98%, the “HPLC purity after stability testing” value (7-day stability testing; 80° C. for 7 days) was 99.97% and the “HPLC purity after stability testing” value (7-day stability testing; [4]) was 99.95%. For the same compound, the hygroscopic nature [2] was “moderately hygroscopic”, the weight uptake ([2]; at 90% RH) was 3.5% and the weight uptake ([2]; up to 70% humidity) was 2.8%. The “Post-GVS analysis by XRPD (form change)” value [2] was “maintained its form and crystallinity”.
In the case of O=C(OC(C(F)(F)F)C(F)(F)F)N1CCN(Cc2ccc(C(F)(F)F)cc2N2CCCC2)CC1 [Compound 6, 1,1,1,3,3,3-hexafluoropropan-2-yl 4-(2-(pyrrolidin-1-yl)-4-(trifluoromethyl)benzyl)piperazine-1-carboxylate fumarate salt], the “HPLC purity after stability testing” value (7-day stability testing; 40° C./75% RH for 7 days) is reported as 99.9%, the “HPLC purity after stability testing” value (7-day stability testing; 80° C. for 7 days) is reported as 99.9% and the “HPLC purity after stability testing” value (7-day stability testing; [4]) is reported as 99.9%. For the same compound, the “relative thermodynamic stability of polymorphs” value [3] was “thermodynamically most stable form”.
